Values joined by “and” are separate entries in the source; they are usually repeats but may differ in a detail not shown here. Equal values may be shown once.
How the values were obtained:
LOLRI = test: Pre-emergence action against LOLRI, 1280 g/ha; type: in vivo, Lolium rigidum; details: visual scoring after about 3 weeks vs untreated controls, 100% = plants have died, 0% = like control plants; for pest or weed control at 1280 g/ha: Lolium rigidum, 504 h
Method in brief: (§1)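 Mono- and dicot weed seeds sown in sandy loam were treated on the covering soil surface with WP or EC formulations plus 0.5% additive at 600 L water/ha. Pots stayed in a greenhouse; damage was scored visually after ~3 weeks as percent versus untreated controls (100% = dead).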

ABUTH [1] = test: Pre-emergence action against ABUTH, 1280 g/ha; type: in vivo, Abutilon theophrasti; details: scored visually after about 3 weeks vs untreated controls (100% = plants have died)
Method in brief: as §1

ABUTH [2] = test: Pre-emergence action at 320 g/ha against ABUTH; type: in vivo, Abutilon theophrasti; details: greenhouse, scored visually after about 3 weeks vs untreated controls, 100% = plants have died, 0% = like control plants
Method in brief: (§2)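 Application: aqueous WP or EC with 0.5% additive on soil covering seeds, 600 l/ha. Read-out: visual percent damage after ~3 weeks in greenhouse, untreated pots as reference.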

STEME = test: Pre-emergence action at 320 g/ha against STEME; type: in vivo, Stellaria media; details: greenhouse, scored visually after about 3 weeks vs untreated controls, 100% = plants have died, 0% = like control plants
Description: b) Seeds of monocotyledonous and dicotyledonous weed plants and crop plants are placed in plastic or organic planting pots and covered with soil. The compounds of the invention, formulated in the form of wettable powders (WP) or as emulsion concentrates (EC), are then applied onto the surface of the covering soil as aqueous suspension or emulsion with addition of 0.5% additive at a water application rate of 600 l/ha (converted). After the treatment, the pots are placed in a greenhouse and kept under good growth conditions for the trial plants. After about 3 weeks, the effect of the preparations is scored visually in comparison with untreated controls as percentages. For example, 100% activity=the plants have died, 0% activity=like control plants. Tables 13 to 26 below show the effects of selected compounds of the general formula (I) on various harmful plants and at an application rate corresponding to 320 g/ha, which were obtained by the experimental procedure mentioned above.

VERPE = test: Pre-emergence action at 320 g/ha against VERPE; type: in vivo, Veronica persica; details: visual scoring after about 3 weeks vs untreated controls; for pest or weed control at 320 g/ha: Veronica persica, 504 h
Method in brief: as §2

VIOTR [3] = test: Pre-emergence action at 320 g/ha against VIOTR; type: in vivo, Viola tricolor; details: dosage 320 g/ha; for pest or weed control at 320 g/ha: Viola tricolor, 504 h
Method in brief: as §2

ABUTH [4] = test: Post-emergence action at 320 g/ha against ABUTH; type: in vivo, Abutilon theophrasti; details: visual rating about 3 weeks after treatment vs untreated controls
Method in brief: (§3)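 Greenhouse-grown plants sprayed post-emergence at the one-leaf stage, 2 to 3 weeks after sowing, with WP or EC formulations plus 0.5% additive at 600 l/ha water, at 320 g/ha. Activity rated visually after about 3 weeks versus untreated controls (100% = plants died, 0% = like control).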

VIOTR [5] = test: Post-emergence action at 320 g/ha against VIOTR; type: in vivo, Viola tricolor; details: visual rating about 3 weeks after treatment vs untreated controls; for pest or weed control at 320 g/ha: Viola tricolor, 504 h
Method in brief: as §3

AVEFA = test: Post-emergence action at 320 g/ha against AVEFA; type: in vivo; details: visual rating about 3 weeks after treatment vs untreated controls; for pest or weed control at 320 g/ha: Avena fatua, 504 h
Method in brief: as §3

HORMU = test: Post-emergence action at 320 g/ha against HORMU; type: in vivo, Hordeum murinum; details: visual rating about 3 weeks after treatment vs untreated controls
Description: Accordingly, the compounds of the invention have good herbicidal action against a broad spectrum of weed grasses and broad-leaved weeds and are therefore suitable for controlling unwanted vegetation by the post-emergence method. • b) Seeds of monocotyledonous and dicotyledonous weeds and crop plants are placed in sandy loam in plastic or organic planting pots, covered with soil and cultivated in a greenhouse under controlled growth conditions. 2 to 3 weeks after sowing, the test plants are treated at the one-leaf stage. The compounds of the invention, formulated in the form of wettable powders (WP) or as emulsion concentrates (EC), are then sprayed onto the green parts of the plants as aqueous suspension or emulsion with addition of 0.5% additive at a water application rate of 600 l/ha (converted). After the test plants have been kept in the greenhouse under optimum growth conditions for about 3 weeks, the activity of the preparations is rated visually in comparison to untreated controls. For example, 100% activity=the plants have died, 0% activity=like control plants. Tables 39 to 49 below show the effects of selected compounds of the general formula (I) according to Tables 1 and 2 on various harmful plants and at an application rate corresponding to 320 g/ha, which were obtained by the experimental procedure mentioned above.

ALOMY = test: Pre-emergence action against ALOMY, 1280 g/ha; type: in vivo, Alopecurus myosuroides; details: visual scoring after about 3 weeks vs untreated controls, 100% = plants have died, 0% = like control plants
Method in brief: as §1

PHBPU = test: Pre-emergence action at 320 g/ha against PHBPU; type: in vivo; details: visual scoring after about 3 weeks vs untreated controls
Method in brief: as §2

DIGSA = test: Post-emergence action against DIGSA, 1.28 kg/ha; type: in vivo, Digitaria sanguinalis; details: dosage 1280 g/ha, visual rating about 3 weeks after treatment vs untreated controls
Method in brief: (§4)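 Spray at one-leaf stage with WP/EC + 0.5% additive, 600 L water/ha. Greenhouse, optimum conditions, ~3 wk. Visual % control vs untreated; 0 = no effect, 100 = dead.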

ECHCG = test: Post-emergence action at 320 g/ha against ECHCG; type: in vivo, Echinochloa crus-galli; details: dosage 320 g/ha, visual rating about 3 weeks after treatment vs untreated controls (100% = plants died)
Method in brief: as §3

ECHGC = test: Pre-emergence action at 320 g/ha against ECHGC; type: in vivo, Echinochloa crus-galli; details: visual scoring after about 3 weeks vs untreated controls
Method in brief: as §2

KCHSC [6] = test: Post-emergence action against KCHSC, 1.28 kg/ha; type: in vivo, Bassia scoparia; details: dosage 1280 g/ha, visual rating about 3 weeks after treatment vs untreated controls (100% = plants died)
Method in brief: as §4

KCHSC [7] = test: Pre-emergence action against KCHSC, 1280 g/ha; type: in vivo, Bassia scoparia; details: scored visually after about 3 weeks vs untreated controls (100% = plants have died)
Method in brief: as §1

SMILES	pest or weed control at 1280 g/ha (LOLRI)	Pre-emergence action against ABUTH (ABUTH [1])	Pre-emergence action at 320 g/ha against STEME in % (STEME)	pest or weed control at 320 g/ha (VERPE)	pest or weed control at 320 g/ha (VIOTR [3])	Post-emergence action against ABUTH in % (ABUTH [4])	pest or weed control at 320 g/ha (VIOTR [5])	pest or weed control at 320 g/ha (AVEFA)	Post-emergence action against HORMU in % (HORMU)	Pre-emergence action against ALOMY (ALOMY)	Pre-emergence action against PHBPU in % (PHBPU)	Post-emergence action against DIGSA (DIGSA)	Post-emergence action at 320 g/ha against ECHCG in % (ECHCG)	Pre-emergence action against ECHGC in % (ECHGC)	Post-emergence action against KCHSC (KCHSC [6])	Pre-emergence action against LOLRI (LOLRI)	Pre-emergence action against VERPE in % (VERPE)	Pre-emergence action against VIOTR in % (VIOTR [3])	Post-emergence action against VIOTR in % (VIOTR [5])	Post-emergence action against AVEFA in % (AVEFA)	further results
COC(=O)COc1nn(-c2ccccc2F)c(-c2cncnc2)c1Br [VI-004, Methyl {[4-bromo-1-(2-fluorophenyl)-5-(pyrimidin-5-yl)-1H-pyrazol-3-yl]oxy}acetate]	100%	90%	90%	100%	100%	80%	80%	100%	90%	–	–	–	–	–	–	–	–	–	–	–	Pre-emergence action at 320 g/ha against ABUTH in % (ABUTH [2]): 80%
O=C(O)COc1nn(-c2ccccc2F)c(-c2cncnc2)c1Br [VI-007, {[4-Bromo-1-(2-fluorophenyl)-5-(pyrimidin-5-yl)-1H-pyrazol-3-yl]oxy}acetic Acid]	100%	90%	100%	100%	100%	90%	90%	100%	90%	90%	90%	100%	80%	–	–	–	–	–	–	–	–
O=C(O)COc1nn(-c2ccccc2F)c(-c2ccc(F)nc2)c1Br [VII-003, {[4-Bromo-1-(2-fluorophenyl)-5-(6-fluoropyridin-3-yl)-1H-pyrazol-3-yl]oxy}acetic acid]	100%	–	90%	100%	100%	80%	90%	80%	90%	90%	90%	100%	90%	100%	–	–	–	–	–	–	–
CCOC(=O)COc1nn(-c2ccccc2F)c(-c2ccc(F)nc2)c1Br [VII-012, Ethyl {[4-bromo-1-(2-fluorophenyl)-5-(6-fluoropyridin-3-yl)-1H-pyrazol-3-yl]oxy}acetate]	100%	–	100%	100%	100%	80%	90%	90%	90%	100% and 90%	90% and 80%	100%	90%	100%	90%	–	–	–	–	–	–
CCOC(=O)COc1nn(-c2ccc(F)cc2F)c(-c2ccc(F)nc2)c1Cl [VII-016]	–	100%	90%	–	–	90%	–	–	80%	–	90%	–	80%	100%	–	100%	90%	90%	80%	80%	–
CCOC(=O)C(C)Oc1nn(-c2ccccc2F)c(-c2ccc(F)nc2)c1Br (stereo not shown) [VII-019]	–	90%	90%	–	–	80%	–	–	100%	90%	90%	100%	90%	100%	90%	100%	100%	100%	90%	100%	Pre-emergence action against KCHSC (KCHSC [7]): 100%
COC(=O)COc1nn(-c2ccc(F)cc2)c(-c2cccnc2)c1Br [VII-028]	–	–	90%	–	–	80%	–	–	80%	–	100%	–	80%	80%	–	–	100%	100%	80%	80%	Pre-emergence action at 320 g/ha against ABUTH in % (ABUTH [2]): 90%
CCC(Oc1nn(-c2ccccc2F)c(-c2ccc(F)nc2)c1Br)C(=O)OC (stereo not shown) [VII-029]	–	90%	90%	–	–	80%	–	–	90%	90%	–	100%	80%	–	90%	100%	100%	100%	100%	90%	Pre-emergence action against KCHSC (KCHSC [7]): 90%
COC(=O)C(C)Oc1nn(-c2ccccc2)c(-c2cccnc2)c1Cl (stereo not shown) [VII-032]	–	–	90%	–	–	80%	–	–	90%	–	100%	90%	90%	90%	–	100%	100%	100%	90%	100%	–

Source: patent US12180187B2, “1-phenyl-5-azinylpyrazolyl-3-oxyalkyl acids and their use for controlling unwanted plant growth” (BAYER AKTIENGESELLSCHAFT, priority 2019, dated 2024)
